We go through eight molecules from patent US6056965A, “2-mercapto-imidazole derivatives substituted in position 4 (or 5) as antioxidizing agents, method of preparation and applications in the pharmaceutical, cosmetic or food industries” (Oxis Isle of Man, Limited, priority 1993, dated 2000).

Assay [1] relates to erythrocytic glutathione peroxidase. Kind of assay: Prevention of the inactivation of glutathione peroxidase by hypochlorous acid. Format: biochemical, bovine. As to conditions: 25 μM test molecule + 10 μM hypochlorous acid, 2 minutes at 37° C.; 100% = no hypochlorous acid and no test molecule. The procedure:
In a 50 mM potassium phosphate buffer of pH 7.0 containing 0.1 mM DTPA, a quantity of erythrocytic glutathione peroxidase of bovine origin is incubated for 2 minutes at 37° C., at a final concentration of 1.5 U/ml, in the presence of 10 μM hypochlorous acid and in the presence or absence of a molecule described in the present invention (at 25 μM).
After incubation for 2 minutes, 100 μl of this reaction medium are then added to 1.5 ml of 50 mM Tris buffer of pH 7.6 (at 37° C.) containing 0.1 mM DTPA, 0.165 mM β-NADPH, 2.2 mM reduced glutathione and 1.1 U/ml of glutathione disulfide reductase.
Then, after the addition of 50 μl of 6.6 mM t-butyl hydroperoxide, the glutathione peroxidase activity is determined at 37° C. by measuring the decrease in absorbance at 340 nm for 2 minutes.
They are expressed as a percentage of the glutathione peroxidase activity determined under the same experimental conditions in the absence of hypochlorous acid and the test molecule.

In assay [2] the test system is glucose-6-phosphate dehydrogenase. Kind of assay: Prevention of the inactivation of glucose-6-phosphate dehydrogenase by the system Cu(II)/ascorbate/O2. The assay is classed as biochemical, Leuconostoc mesenteroides. The settings on record: 25 μM test molecule + 4.5 μM Cu(2+) + 360 μM ascorbate, 5 minutes at 37° C.; 100% = no system and no test molecule. The procedure:
In a 50 mM potassium phosphate buffer of pH 7.0, a quantity of glucose-6-phosphate dehydrogenase (purified from Leuconostoc mesenteroides) is incubated for 5 minutes at 37° C., at a final concentration of 1.2 U/ml, in the presence of 4.5 μM copper sulfate and 360 μM ascorbate and in the presence or absence of a molecule described in the present invention (at 25 μM). After incubation for 5 minutes, 20 μl of this reaction medium are then added to 980 μl of 50 mM Tris buffer of pH 7.5 (at 37° C.) containing 0.380 mM β-NADP^+, 3.3 mM glucose-6-phosphate and 6.3 mM magnesium chloride. The glucose-6-phosphate dehydrogenase activity is then determined at 37° C. by measuring, the increase in absorbance at 340 nm for 7 minutes. They are expressed as a percentage of the glucose-6-phosphate dehydrogenase activity determined under the same experimental conditions in the absence of the system Cu(II)/ascorbate/O2 and the test molecule.

The subject of another assay is double-stranded DNA. Kind of assay: Prevention of the degradation of DNA by the system Fe(II)-citrate/H2O2/ascorbate. The assay is classed as biochemical, phage lambda. As to conditions: 25 μM test molecule (table) + 20 μM Fe(2+)-citrate, 200 μM ascorbate, 200 μM H2O2, 1 hour at 37° C. The procedure:
After this incubation for one hour, 220 U/ml of catalase are then added to the reaction medium and the integrity of the DNA is measured by spectrofluorimetry after the addition of 10 μl of a 5 mM solution of ethidium bromide to the reaction medium (excitation wavelength: 510 nm; emission wavelength: 590 nm).
The effect of the test molecule is measured by determining the percentage of intact DNA, the value of 100% being determined under the same experimental conditions in the absence of the system Fe(II)-citrate/H2 O2 /ascorbate and the test molecule.

In assay [3] the test system is isolated and perfused rat heart. The experiment in a line: Inhibition of cardiac necrosis induced by ischemia-reperfusion, perfused isolated heart (Example 16). As to conditions: 2 μM in perfusion medium 12 minutes prior to ischemia and during reperfusion. The method, then:
Male Sprague-Dawley rats weighing between 250 and 350 grams are injected intraperitoneally with a solution of sodium heparinate (40 units/100 g). The rats are anesthetized with ether 30 minutes later. The heart is then quickly removed and perfused by Langendorff's method (see 0. LANGENDORFF: Pflugers Arch. Physiol. Mensch. Tiere; (1895); 61; page 291) with electrical stimulation at a frequency of 300/min. The perfusion solution, equilibrated with 95% of oxygen and 5% of carbon dioxide, consists of a modified Krebs-Henseleit buffer (pH 7.4) of the following composition: NaCl118 mM, KCl 4.7 mM, MgSO4 1.2 mM, CaCl2 1 mM, KH2 PO4 1.2 mM, NaHCO3 25 mM and glucose 11 mM. The whole set-up is thermostatically controlled at 37° C.
The functional state of the heart is monitored by measurement of the following hemodynamic parameters: heart rate, systolic and telediastolic ventricular pressures (the difference between these expressing the developed pressure) and minimal and maximal slopes of the pressure variations as a function of time. […]
In addition, the alteration of the myocardial tissue is evaluated by determining the concentration, in the perfusate, of two cytosolic enzymes released into the perfusion medium, namely creatine phosphokinase (CPK) and lactate dehydrogenase (LDH). […]

For assay [4], the system named is isolated rat heart. The experiment in a line: Recovery of the developed pressure of a heart subjected to ischemia-reperfusion (Example 18). As to conditions: 10 μM BXT 52051 or 2 μM BXT 52052; 12 minutes prior to ischemia and during reperfusion; FIG. 4. The procedure:
In the same experimental model as that described in Example 17, the study of BXT 52051 and BXT 52052 is carried out by perfusing the heart with the perfusion medium containing 10 μM BXT 52051 or 2 μM BXT 52052 for 12 minutes prior to the period of ischemia, as well as during the reperfusion. The degradation of the cardiac function is evaluated from the measurement of hemodynamic parameters (systolic and telediastolic ventricular pressures) by determining over time the percentage recovery of the developed pressure (difference between systolic and telediastolic pressure) during the reperfusion, compared to that recorded just before the period of ischemia (stabilized developed pressure).

The conditions of assay [5]: quenching excited states of photosensitizers such as rose bengal; cited from earlier work.
The conditions of assay [6]: in the presence of metal salts (Fe^++); cited from earlier work.
The test system of assay [7] is isolated and perfused rat heart. Kind of assay: Inhibition of cardiac necrosis induced by ischemia-reperfusion, modified perfusion solution (Example 17). The settings on record: 20 μM BXT 52053, 600 μM albumin (BSA) or 100 μM L-ergothioneine; 12 minutes before ischemia and first 30 minutes of reperfusion; FIG. 3. The procedure:
In the same experimental model as that described in Example 16, the composition of the perfusion solution was modified such that it contains 2.5 mM CaCl2 and 2.4 mM MgCl2) (all else being moreover equal). The effect of BXT 52053 is then compared to that of albumin and L-ergothioneine.
This study is carried out by perfusing the heart with the perfusion solution containing 20 μM BXT 52053, or 600 μM albumin (BSA), or 100 μM L-ergothioneine, during the 12 minutes preceding the period of ischemia, then during the first 30 minutes of post-ischemic reperfusion.
The degradation of the myocardial tissue due to the ischemia and/or reperfusion is evaluated by determining the total quantity of creatine phosphokinase (CPK) released into the perfusate during the period of reperfusion. The results are expressed in milliunits of enzyme activity per milligram of heart and per minute.

The test system of assay [8] is isolated rat heart. As to conditions: 100 μmolar; after 15 min of ischemia; cited from earlier work.
For assay [9] the following is noted: pulsed radiolysis or Fenton reaction; cited from earlier work.
The conditions of assay [10]: physiological conditions (concentrations and pH); cited from earlier work.
Assay [11] concerns ferryl forms of the hemoproteins. The settings on record: physiological pH; produced in the presence of H2O2; cited from earlier work.
For a further assay, the system named is oxyhemoglobin. The settings on record: micromolar concentrations; sodium nitrite; in vitro; cited from earlier work.
The conditions of assay [12]: physiological conditions (concentrations and pH); cited from earlier work. This is another data set of the same source.

As for `O=C(O)CCc1c[nH]c(=S)[nH]1` [BXT 52020, 3-(2'-mercaptoimidazol-4'-yl)propanoic acid], in assay [1], the “% glutathione peroxidase activity” value turned out to be 94.8%. The “% glucose-6-phosphate dehydrogenase activity” value in assay [2] is 92.3%. In the assay on double-stranded DNA, the “% intact DNA” value is recorded as 76.2%.
On to `CCOC(=O)CCc1c[nH]c(=S)[nH]1` [BXT 52021, ethyl 3-(2'-mercaptoimidazol-4'-yl)propanoate], for which, in assay [1], the “% glutathione peroxidase activity” value worked out at 94.7%. The “% glucose-6-phosphate dehydrogenase activity” value in assay [2] turned out to be 93.7%. Further, the “systolic pressure of heart subjected to ischemia-reperfusion” value in [3] is “maintained”. Also, the “% intact DNA” value with double-stranded DNA came out at 78.0%.
As for `NCCc1c[nH]c(=S)[nH]1` [BXT 52022, 2-(2'-mercaptoimidazol-4'-yl)ethylamine], the “% glutathione peroxidase activity” value in assay [1] was determined as 94.4%. Also, the “% glucose-6-phosphate dehydrogenase activity” value in assay [2] was 94.4%. Further, in the assay with double-stranded DNA, the “% intact DNA” value is listed as 80.2%.
Consider `NC(=O)CCc1c[nH]c(=S)[nH]1` [BXT 52029, 3-(2'-mercaptoimidazol-4'-yl)propanamide], for which the “% glutathione peroxidase activity” value in [1] was 93.2%. Moreover, the “% glucose-6-phosphate dehydrogenase activity” value in assay [2] is 92.3%. For the same molecule, the “% intact DNA” value with double-stranded DNA is 78.0%.
In the same order, the values of `CN(C)[C@@H](Cc1c[nH]c(=S)[nH]1)C(=O)O` [BXT 52040, 2'-mercapto-Nα,Nα-dimethyl-L-(+)-histidine] are 99.1%, 104.6% and 75.3%.
In the case of `C[N+](C)(C)CC(CC(=O)[O-])OC(=O)CCc1c[nH]c(S)n1` (stereo not drawn) [BXT 52052, carnitine 3-(2'-mercaptoimidazol-4'-yl)propanoate], in the assay with isolated rat heart [4], the “recovery of the ventricular developed pressure during reperfusion” value is “recovered much more rapidly and reaches a higher value”.
Turning to `C[N+](C)(C)[C@@H](Cc1c[nH]c(=S)[nH]1)C(=O)[O-]` [L-ergothioneine, L-(+)-Ergothioneine], in assay [5], the “photoproduction of singlet oxygen” value is listed as “inhibits the photoproduction of singlet oxygen”. In assay [6], the “stimulation of peroxidation of polyunsaturated fatty acids” value is recorded as “does not stimulate the peroxidation of polyunsaturated fatty acids”. Besides, the “total quantity of CPK released into the perfusate during 30 minutes of reperfusion” value in [7] was “no significant effect”. Moreover, the “extent of cell necrosis (lactate dehydrogenase activity of the effluent)” value with isolated rat heart [8] was “limits the extent of cell necrosis”. Moreover, the “reaction with OH radicals” value in assay [9] was “kinetics close to the maximum rate of diffusion”. Further, the “reaction with hydrogen peroxide” value in [10] is given as “reacts neither”. For the same molecule, in assay [11], the “reduction of ferryl forms of hemoproteins” value is reported as “reduces the ferryl forms of the hemoproteins”. Moreover, in the assay with oxyhemoglobin, the “inhibition of methemoglobin formation” value is “effectively inhibit the formation of methemoglobin”. For the same molecule, the “reaction with superoxide anion” value in assay [12] is “reacts neither”.
“albumin: albumin (BSA), comparison agent in the perfusion solution”: the “total quantity of CPK released into the perfusate during 30 minutes of reperfusion” value in assay [7] was “no significant effect”.
